Data taken from US8507509B2, “Saturated and insaturated bi- or tricyclic aryloxyacetamine derivatives and their use as fungicides” (Syngenta Crop Protection LLC, priority 2007, dated 2013).

Experiments:
[1] = system: Plasmopara viticola; test: Plasmopara viticola (downy mildew of grapevine), grapevine leaf disk assay, preventive; assay type: in vivo; conditions: foliar, 168 h, 200 ppm, grapevine leaf disks, assessed seven days after inoculation, read-out: control of fungal infection, Plasmopara viticola
[2] = system: Phytophthora infestans; test: whole plant or invertebrate; assay type: in vivo; conditions: in Solanum lycopersicum, foliar, 96 h, read-out: control of fungal infection, Phytophthora infestans
[3] = system: Erysiphe graminis f.sp. tritici; test: Erysiphe graminis f.sp. tritici (wheat powdery mildew), wheat leaf segment assay, preventive; assay type: in vivo; conditions: Blumeria graminis, foliar, 96 h; 200 ppm; wheat leaf segments; assessed four days after inoculation; read-out: control of fungal infection, Etysiphe graminis f.sp. tritici
[4] = system: Septoria tritici; test: Septoria tritici (leaf blotch), liquid culture growth inhibition in nutrient broth; assay type: cell-based; conditions: Zymoseptoria tritici; 200 ppm; PDB broth, 24 C; inhibition of growth determined photometrically after 72 hrs; read-out: control of fungal infection, Septoria tritici
[5] = system: Pythium ultimum; test: Pythium ultimum (Damping off), liquid culture growth inhibition in potato dextrose broth; assay type: cell-based; conditions: Globisporangium ultimum; 20 ppm; potato dextrose broth, 24° C.; inhibition of growth determined photometrically after 48 hours; read-out: control of fungal infection, Pythium ultimum
[6] = system: Septoria nodorum; test: Septoria nodorum (wheat glume blotch), wheat leaf segment assay, preventive; assay type: in vivo; conditions: Parastagonospora nodorum, foliar, 96 h; 200 ppm; wheat leaf segments; assessed four days after inoculation; read-out: control of fungal infection, Septoria nodorum

CCC(Oc1ccc2ncc(I)cc2c1)C(=O)NC(C)(C)C=NO (centres unmarked) [Compound No. 152, N-(2-Hydroxyimino-1,1-dimethyl-ethyl)-2-(3-iodo-quinolin-6-yloxy)-butyramide]
≥ 60%: pest or weed control at 200 ppm [1] | pest or weed control at 200 ppm [2] | pest or weed control at 200 ppm [3] | inhibition of growth at 200 ppm [4] | inhibition of growth at 20 ppm [5]

CON=CC(C)(C)NC(=O)C(Oc1cc(Br)c2ncc(Br)cc2c1)SC (centres unmarked) [Compound No. 34, 2-(3,8-Dibromo-quinolin-6-yloxy)-N-(2-methoxyimino-1,1-dimethyl-ethyl)-2-methylsulfanyl-acetamide]
≥ 60%: pest or weed control at 200 ppm [6] | inhibition of growth at 200 ppm [4]

CSC(Oc1ccc2ncc(Br)cc2c1)C(=O)NC(C)(C)C=NOCC1CCCO1 (centres unmarked) [Compound No. 143, 2-(3-Bromo-quinolin-6-yloxy)-N-[1,1-dimethyl-2-(tetrahydro-furan-2-ylmethoxyimino)-ethyl]-2-methylsulfanyl-acetamide]
≥ 60%: pest or weed control at 200 ppm [1] | pest or weed control at 200 ppm [2] | pest or weed control at 200 ppm [3] | inhibition of growth at 200 ppm [4] | inhibition of growth at 20 ppm [5]

CSC(Oc1ccc2ncc(Br)cc2c1)C(=O)NC(C)(C)C=NOc1ccccc1 (centres unmarked) [Compound No. 8, 2-(3-Bromo-quinolin-6-yloxy)-N-(1,1-dimethyl-2-phenoxyimino-ethyl)-2-methylsulfanyl-acetamide]
≥ 60%: pest or weed control at 200 ppm [1] | pest or weed control at 200 ppm [2] | inhibition of growth at 200 ppm [4] | inhibition of growth at 20 ppm [5]

CCC(Oc1cc2cc(Br)cnc2cc1F)C(=O)NC(C)(C)C=NOC (centres unmarked) [Compound No. 154, 2-(3-Bromo-7-fluoro-quinolin-6-yloxy)-N-(2-methoxyimino-1,1-dimethyl-ethyl)-butyramide]
≥ 60%: pest or weed control at 200 ppm [1] | pest or weed control at 200 ppm [2] | pest or weed control at 200 ppm [3] | pest or weed control at 200 ppm [6] | inhibition of growth at 200 ppm [4]

CON=C(Cc1ccsc1)C(C)(C)NC(=O)C(Oc1ccc2ncc(Br)cc2c1)SC (centres unmarked) [Compound No. 124, 2-(3-Bromo-quinolin-6-yloxy)-N-{2-[(E or Z)-methoxyimino]-1,1-dimethyl-3-thiophen-3-yl-propyl}-2-methylsulfanyl-acetamide]
≥ 60%: pest or weed control at 200 ppm [6] | inhibition of growth at 200 ppm [4]

CCON=CC(C)(C)NC(=O)C(Oc1ccc2ncc(I)cc2c1)SC (centres unmarked) [Compound No. 51, N-(2-Ethoxyimino-1,1-dimethyl-ethyl)-2-(3-iodo-quinolin-6-yloxy)-2-methylsulfanyl-acetamide]
≥ 60%: pest or weed control at 200 ppm [1] | pest or weed control at 200 ppm [3] | inhibition of growth at 200 ppm [4] | inhibition of growth at 20 ppm [5]

C#Cc1cnc2ccc(OC(SC)C(=O)NC(C)(C)C=NOC)cc2c1 (centres unmarked) [Compound No. 38, 2-(3-Ethynyl-quinolin-6-yloxy)-N-(2-methoxyimino-1,1-dimethyl-ethyl)-2-methylsulfanyl-acetamide]
≥ 60%: pest or weed control at 200 ppm [1] | pest or weed control at 200 ppm [2] | pest or weed control at 200 ppm [3] | pest or weed control at 200 ppm [6] | inhibition of growth at 200 ppm [4]

CSC(Oc1cc(C)c2ncc(I)cc2c1)C(=O)NC(C)(C)CC=NO (centres unmarked) [Compound No. 41, N-(3-Hydroxyimino-1,1-dimethyl-propyl)-2-(3-iodo-8-methyl-quinolin-6-yloxy)-2-methylsulfanylacetamide]
≥ 60%: pest or weed control at 200 ppm [1] | pest or weed control at 200 ppm [2] | pest or weed control at 200 ppm [3] | inhibition of growth at 200 ppm [4] | inhibition of growth at 20 ppm [5]

C=CCON=CC(C)(C)NC(=O)C(CC)Oc1ccc2ncc(I)cc2c1 (centres unmarked) [Compound No. 4, N-(2-Allyloxyimino-1,1-dimethyl-ethyl)-2-(3-iodo-quinolin-6-yloxy)-butyramide]
≥ 60%: pest or weed control at 200 ppm [1] | pest or weed control at 200 ppm [2] | pest or weed control at 200 ppm [3] | inhibition of growth at 200 ppm [4] | inhibition of growth at 20 ppm [5]

C#Cc1cnc2c(C)cc(OC(CC)C(=O)NC(C)(C)C=NOC)cc2c1 (centres unmarked) [Compound No. 132, 2-(3-Ethynyl-8-methyl-quinolin-6-yloxy)-N-(2-methoxyimino-1,1-dimethyl-ethyl)-butyramide]
≥ 60%: pest or weed control at 200 ppm [1] | pest or weed control at 200 ppm [2] | pest or weed control at 200 ppm [3] | pest or weed control at 200 ppm [6] | inhibition of growth at 200 ppm [4] | inhibition of growth at 20 ppm [5]

COCC(C)(C=NOC)NC(=O)C(Oc1cc(C)c2ncc(Br)cc2c1)SC (centres unmarked) [Compound No. 63, 2-(3-Bromo-8-methyl-quinolin-6-yloxy)-N-(2-methoxyimino-1-methoxymethyl-1-methyl-ethyl)-2-methylsulfanyl-acetamide]
≥ 60%: pest or weed control at 200 ppm [1] | pest or weed control at 200 ppm [2] | pest or weed control at 200 ppm [3] | pest or weed control at 200 ppm [6] | inhibition of growth at 200 ppm [4]

C#CCON=CC(C)(C)NC(=O)C(Oc1ccc2ncc(Br)cc2c1)SC (centres unmarked) [Compound No. 17, 2-(3-Bromo-quinolin-6-yloxy)-N-(1,1-dimethyl-2-prop-2-ynyloxyimino-ethyl)-2-methylsulfanyl-acetamide]
≥ 60%: pest or weed control at 200 ppm [1] | pest or weed control at 200 ppm [2] | pest or weed control at 200 ppm [3] | pest or weed control at 200 ppm [6] | inhibition of growth at 200 ppm [4] | inhibition of growth at 20 ppm [5]

CON=CCC(C)(C)NC(=O)C(Oc1ccc2ncc(I)cc2c1)SC (centres unmarked) [Compound No. 46, 2-(3-Iodo-quinolin-6-yloxy)-N-(3-methoxyimino-1,1-dimethyl-propyl)-2-methylsulfanyl-acetamide]
≥ 60%: pest or weed control at 200 ppm [1] | pest or weed control at 200 ppm [2] | pest or weed control at 200 ppm [3] | pest or weed control at 200 ppm [6] | inhibition of growth at 200 ppm [4]

CON=CC(C)(C)NC(=O)C(Oc1cc(C)c2ncc(I)cc2c1)SC (centres unmarked) [Compound No. 44, 2-(3-Iodo-8-methyl-quinolin-6-yloxy)-N-(2-methoxyimino-1,1-dimethyl-ethyl)-2-methylsulfanyl-acetamide]
≥ 60%: pest or weed control at 200 ppm [1] | pest or weed control at 200 ppm [3] | inhibition of growth at 200 ppm [4] | inhibition of growth at 20 ppm [5]

C#Cc1cnc2ccc(OC(CC)C(=O)NC(C)(C)C=NOC)cc2c1 (centres unmarked) [Compound No. 131, 2-(3-Ethynyl-quinolin-6-yloxy)-N-(2-methoxyimino-1,1-dimethyl-ethyl)-butyramide]
≥ 60%: pest or weed control at 200 ppm [1] | pest or weed control at 200 ppm [2] | pest or weed control at 200 ppm [3] | pest or weed control at 200 ppm [6] | inhibition of growth at 200 ppm [4] | inhibition of growth at 20 ppm [5]

CON=C(c1ccccc1)C(C)(C)NC(=O)C(Oc1ccc2ncc(Br)cc2c1)SC (centres unmarked) [Compound No. 130, 2-(3-Bromo-quinolin-6-yloxy)-N-{2-[(E or Z)-methoxyimino]-1,1-dimethyl-2-phenyl-ethyl}-2-methylsulfanyl-acetamide]
≥ 60%: pest or weed control at 200 ppm [1] | pest or weed control at 200 ppm [2] | pest or weed control at 200 ppm [3] | pest or weed control at 200 ppm [6] | inhibition of growth at 200 ppm [4] | inhibition of growth at 20 ppm [5]

CON=CC(C)(C)NC(=O)C(OC)Oc1ccc2ncc(Br)cc2c1 (centres unmarked) [Compound No. 70, 2-(3-Bromo-quinolin-6-yloxy)-2-methoxy-N-(2-methoxyimino-1,1-dimethyl-ethyl)-acetamide]
≥ 60%: pest or weed control at 200 ppm [1] | pest or weed control at 200 ppm [2] | pest or weed control at 200 ppm [3] | inhibition of growth at 200 ppm [4] | inhibition of growth at 20 ppm [5]

COCC(=O)ON=CCC(C)(C)NC(=O)C(Oc1cc(C)c2ncc(I)cc2c1)SC (centres unmarked) [Compound No. 103, 2-(3-Iodo-8-methyl-quinolin-6-yloxy)-N-(3-methoxyacetoxyimino-1,1-dimethyl-propyl)-2-methylsulfanyl-acetamide]
≥ 60%: pest or weed control at 200 ppm [1] | pest or weed control at 200 ppm [3] | pest or weed control at 200 ppm [6] | inhibition of growth at 200 ppm [4]

CSC(Oc1ccc2ncc(Br)cc2c1)C(=O)NC(C)(C)C=NO (centres unmarked) [Compound No. 19, 2-(3-Bromo-quinolin-6-yloxy)-N-(2-hydroxyimino-1,1-dimethyl-ethyl)-2-methylsulfanyl-acetamide]
≥ 60%: pest or weed control at 200 ppm [1] | pest or weed control at 200 ppm [2] | pest or weed control at 200 ppm [3] | inhibition of growth at 200 ppm [4] | inhibition of growth at 20 ppm [5]

CCC(Oc1ccc2ncc(Br)cc2c1)C(=O)NC(C)(C)C=NOCCF (centres unmarked) [Compound No. 151, 2-(3-Bromo-quinolin-6-yloxy)-N-[2-(2-fluoro-ethoxyimino)-1,1-dimethyl-ethyl]-butyramide]
≥ 60%: pest or weed control at 200 ppm [1] | pest or weed control at 200 ppm [2] | pest or weed control at 200 ppm [3] | inhibition of growth at 200 ppm [4] | inhibition of growth at 20 ppm [5]

CCON=CC(C)(C)NC(=O)C(Oc1cc(C)c2ncc(I)cc2c1)SC (centres unmarked) [Compound No. 42, N-(2-Ethoxyimino-1,1-dimethyl-ethyl)-2-(3-iodo-8-methyl-quinolin-6-yloxy)-2-methylsulfanyl-acetamide]
≥ 60%: pest or weed control at 200 ppm [1] | pest or weed control at 200 ppm [2] | pest or weed control at 200 ppm [6]

CSC(Oc1ccc2ncc(Br)cc2c1)C(=O)NC(C)(C)C=NOCC#N (centres unmarked) [Compound No. 140, 2-(3-Bromo-quinolin-6-yloxy)-N-(2-cyanomethoxyimino-1,1-dimethyl-ethyl)-2-methylsulfanyl-acetamide]
≥ 60%: pest or weed control at 200 ppm [1] | pest or weed control at 200 ppm [2] | pest or weed control at 200 ppm [3] | inhibition of growth at 200 ppm [4] | inhibition of growth at 20 ppm [5]
